Tests used:
LhcSR3 [1] = target: T1, LhcSR3 (Chlamydomonas reinhardtii, UniProt P0DO19); assay: in vitro reconstitution, HPLC pigment analysis, Soret spectral deconvolution; format: binding
T1 construct: gene LHCSR3.1; precursor 259 residues
T1 sequence (P0DO19 46-259 limits assumed): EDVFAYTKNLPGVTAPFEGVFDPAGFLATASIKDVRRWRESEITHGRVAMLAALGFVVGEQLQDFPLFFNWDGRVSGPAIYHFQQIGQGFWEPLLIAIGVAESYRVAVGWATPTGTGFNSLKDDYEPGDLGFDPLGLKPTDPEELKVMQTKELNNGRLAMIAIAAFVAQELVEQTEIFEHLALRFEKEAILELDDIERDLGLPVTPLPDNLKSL

LhcSR3 [2] = target: T1, LhcSR3; assay: […]-DCCD labelling, SDS-PAGE autoradiography, densitometry; format: binding; details: covalent; labelled compound; protonatable residues
[3] = refolded with Chl a, Chl b, lutein and violaxanthin (LV complex), sites L1/L2 proposed

SMILES	in vitro reconstitution, HPLC pigment analysis, Soret spectral deconvolution (LhcSR3 [1]; [3])	other results
CC(/C=C/C=C(C)/C=C/[C@@]12O[C@]1(C)C[C@@H](O)CC2(C)C)=C\C=C\C=C(C)\C=C\C=C(C)\C=C\[C@@]12O[C@]1(C)C[C@@H](O)CC2(C)C [violaxanthin]	lutein and violaxanthin bound to the apoprotein	
CC1=C(/C=C/C(C)=C/C=C/C(C)=C/C=C/C=C(C)/C=C/C=C(C)/C=C/C2=C(C)C[C@@H](O)CC2(C)C)C(C)(C)C[C@H](O)C1 [zeaxanthin]		in vitro reconstitution, HPLC pigment analysis, Soret spectral deconvolution (LhcSR3 [1]; refolded with zeaxanthin present besides lutein and violaxanthin (LVZ complex), several sites): implying that Zea entered the three sites, although to different extents
C(=NC1CCCCC1)=NC1CCCCC1 [DCCD]		14C-DCCD labelling, SDS-PAGE autoradiography, densitometry (LhcSR3 [2]): LhcSR3 revealed very efficient binding of DCCD, higher than plant CP29
CC1=C[C@H](O)CC(C)(C)[C@H]1/C=C/C(C)=C/C=C/C(C)=C/C=C/C=C(C)/C=C/C=C(C)/C=C/C1=C(C)C[C@@H](O)CC1(C)C [lutein]	lutein and violaxanthin bound to the apoprotein	

Source: PMC3022525, “Analysis of LhcSR3, a Protein Essential for Feedback De-Excitation in the Green Alga Chlamydomonas reinhardtii” (PLoS Biology, 2011)
